Series [1] addresses T1, recombinant human secretory phospholipase A2 (Homo sapiens, UniProt P14555).
T1 sequence (P14555 21-144): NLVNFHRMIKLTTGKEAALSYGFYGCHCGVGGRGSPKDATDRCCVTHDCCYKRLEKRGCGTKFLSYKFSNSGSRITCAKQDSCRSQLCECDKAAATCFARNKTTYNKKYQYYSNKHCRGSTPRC
Description: Inhibition test of human secretory phospholipase A2 (chromogenic assay, 96 well microtiterplate). Conditions: sPLA2 50 ng/well, 40° C., 30 minutes, OD 405 nm, substrate 1,2-bis(heptanoylthio)-1,2-dideoxy-sn-glycero-3-phospholylcholine. Type of series: biochemical. An excerpt: Inhibition Test of Human Secretory Phospholipase A2
In order to identify and evaluate an inhibitor of recombinant human secretory phospholipase A2, the following chromogenic assay is utilized. The assay herein has been applied for high volume screening wherein 96 well microtiterplate is used. A general explanation for such assay is described in “Analysis of Human Synovial Fluid Phospholipase A2 on Short Chain Phosphatidylcholine-Mixed Micelles: Development of a Spectrophotometric Assay Suitable for a Micortiterplate Reader” (Analytical Biochemistry, 204, pp 190-197, 1992 by Laure. J. Reynolds. Lori L. Hughes and Edward A. Dennis: the disclosure of which is incorporated herein for reference.
Bovine Serum Albumin (fatty acid free) (1 g/L) (Sigma A-7030)
pH 7.5 (adjusted with NaOH)
pH 4.5 (adjusted with acetic acid)
1 mg of sPLA2 is dissolved in 1 ml of an enzyme buffer. Thereafter, the solution is maintained at 4° C.
In the assay, 5 μl of the solution is diluted with 1995 μl of the reaction buffer to be used.
198 mg of 5,5′-dithiobis-2-[…] (manufactured by Wako Pure Chemicals) is dissolved in 100 ml of H2O
100 mg of racemic 1,2-bis(heptanoylthio)-1,2-dideoxy-sn-glycero-3-phospholylcholine is dissolved in 1 ml of chloroform.
624.9 mg of Triton-X 100 is dissolved in the reaction buffer.
Enzyme Reaction: for 1 plate of Microtiterplate
1) 0.106 ml of the substrate solution is put in a centrifugal tube, and nitrogen gas is jetted to remove the solvent. 0.54 ml of Triton-X 100 is added thereto, the mixture is stirred, thereafter it is sonified in a bath type sonification to dissolve. To the resulting product are added 17.8 m1l of the reaction buffer and 0.46 ml of DTNB, and 0.18 ml each of the admixture is poured to wells of the 96 well microtiterplate.
2) 10 μl of a test compound (or solvent blank) are added in accordance with alignment of plates which has been previously set.
3) Incubation is effected at 40° C. for 15 minutes.
4) 20 μl of an enzyme solution (sPLA2) which has been previously diluted (50 ng/well) are added to start reaction (40° C., 30 minutes).
5) Changes in absorbancy for 30 minutes are measured by a plate reader, and inhibition activity was calculated (OD: 405 nm).
6) IC50 was determined by plotting log concentration with respect to inhibition values within 10% to 90% inhibiting range.

Structures are written as SMILES.

`CCc1c(C(=O)C(N)=O)c2c(OCC(=O)OC)ccnn2c1Cc1ccccc1` [Compound I-1, Methyl (5-aminooxalyl-7-benzyl-6-ethylpyrrolo[1,2-b]pyridazine-4-yloxy)acetate] yielded a melting point of 210 to 212 °C. Also, the IC50 in series [1] turned out to be 248 nM.
For the compound `CCc1c(C(=O)C(N)=O)c2c(OCC(=O)O)ccnn2c1Cc1ccccc1` [Compound I-2, (5-aminooxalyl-7-benzyl-6-ethylpyrrolo[1,2-b]pyridazine-4-yloxy)acetic acid], the IC50 in series [1] was determined as 9 nM.
The same measure, in the same setting: for `CCc1c(C(=O)C(N)=O)c2c(OCC(=O)O)ccnn2c1Cc1ccccc1` [Compound I-3, Sodium (5-aminooxalyl-7-benzyl-6-ethylpyrrolo[1,2-b]pyridazine-4-yloxy)acetate] the value was 13 nM.
Compound `CCc1c(C(=O)C(N)=O)c2c(OCC(=O)OC)cc(C)nn2c1Cc1ccccc1` [Compound I-4, Methyl (5-aminooxalyl-7-benzyl-6-ethyl-2-methylpyrrolo[1,2-b]pyridazine-4-yloxy)acetate] gave a melting point of 225 to 226 °C. In addition, in series [1], the IC50 stood at 150 nM.
With `CCc1c(C(=O)C(N)=O)c2c(OCC(=O)O)cc(C)nn2c1Cc1ccccc1` [Compound I-5, (5-aminooxalyl-7-benzyl-6-ethyl-2-methylpyrrolo[1,2-b]pyridazine-4-yloxy)acetic acid], in series [1], the half-inhibitory concentration (IC50) was determined as 11 nM.
Compound `CCc1c(C(=O)C(N)=O)c2c(OCC(=O)OC)cc(COc3ccccc3)nn2c1Cc1ccccc1` [Compound I-6, Methyl (5-aminooxalyl-7-benzyl-6-ethyl-2-phenoxymethylpyrrolo[1,2-b]pyridazine-4-yloxy)acetate] yielded a melting point of 185 to 186 °C. Moreover, the half-inhibitory concentration (IC50) in series [1] is 238 nM.
In turn, `CCc1c(C(=O)C(N)=O)c2c(OCC(=O)OC)cc(COc3ccc(F)cc3)nn2c1Cc1ccccc1` [Compound I-7] displayed a melting point of 178 to 179 °C. Further, in series [1], the 50% inhibitory concentration (IC50) was found to be 223 nM.
`CCc1cc(OCC(=O)OC)c2c(C(=O)C(N)=O)c(CC)c(Cc3ccccc3)n2n1` [Compound I-8] gave a melting point of 183 to 185 °C. In series [1], the IC50 stood at 184 nM.
For `CCCc1cc(OCC(=O)OC)c2c(C(=O)C(N)=O)c(CC)c(Cc3ccccc3)n2n1` [Compound I-9], in that order: 204 to 206 °C and 165 nM.
In the same order, the values of `CCc1c(C(=O)C(N)=O)c2c(OCC(=O)OC)cc(C(C)C)nn2c1Cc1ccccc1` [Compound I-10] are 174 to 175 °C and 296 nM.
The compound `CCc1c(C(=O)C(N)=O)c2c(OCC(=O)OC)cc(-c3ccccc3)nn2c1Cc1ccccc1` [Compound I-11] registered a melting point of 236 to 239 °C. In addition, in series [1], the IC50 is 67 nM.
Compound `CCc1c(C(=O)C(N)=O)c2c(OCC(=O)OC)cc(C)nn2c1Cc1ccc(F)cc1` [Compound I-12] returned a melting point of 252 to 254 °C. The IC50 in series [1] is 745 nM.
In the same order, the values of `CCc1c(C(=O)C(N)=O)c2c(OCC(=O)OC)cc(-c3ccccc3)nn2c1Cc1ccc(F)cc1` [Compound I-13] are 253 to 255 °C and 238 nM.
In the same order, the values of `CCc1c(C(=O)C(N)=O)c2c(OCC(=O)OC)cc(C(F)(F)F)nn2c1Cc1ccc(F)cc1` [Compound I-14] are 200 to 202 °C and 883 nM.
In the same order, the values of `CCc1c(C(=O)C(N)=O)c2c(OCC(=O)OC)cc(-c3ccccc3)nn2c1Cc1ccccc1F` [Compound I-15] are 244 to 246 °C and 97 nM.
Turning to `Cc1cc(OCC(=O)O)c2c(C(=O)C(N)=O)c(C)c(Cc3ccccc3)n2n1` [Compound I-16], the melting point was 271 to 272 °C (dec.). In addition, in series [1], the concentration for half-maximal inhibition (IC50) was determined as 12 nM.
On to `Cc1c(C(=O)C(N)=O)c2c(OCC(=O)O)cc(-c3ccccc3)nn2c1Cc1ccccc1` [Compound I-17], for which the melting point was 253 to 254 °C (dec.). Also, the half-maximal inhibitory concentration (IC50) in series [1] came to 7 nM.
For `CCc1cc(OCC(=O)O)c2c(C(=O)C(N)=O)c(CC)c(Cc3ccccc3)n2n1` [Compound I-18], in that order: 223 to 225 °C (dec.) and 10 nM.
For `CCCc1cc(OCC(=O)O)c2c(C(=O)C(N)=O)c(CC)c(Cc3ccccc3)n2n1` [Compound I-19], in that order: 231 to 233 °C (dec.) and 10 nM.
On to `CCc1c(C(=O)C(N)=O)c2c(OCC(=O)O)cc(C(C)C)nn2c1Cc1ccccc1` [Compound I-20], for which the melting point is 234 to 236 °C (dec.). Further, the IC50 in series [1] was determined as 19 nM.
For `CCc1c(C(=O)C(N)=O)c2c(OCC(=O)O)cc(-c3ccccc3)nn2c1Cc1ccccc1` [Compound I-21], in that order: 244 to 246 °C (dec.) and 6 nM.
As to `CCc1c(C(=O)C(N)=O)c2c(OCC(=O)O)cc(C)nn2c1Cc1ccc(F)cc1` [Compound I-22], the melting point lay in the range of 238 to 240 °C. For the same compound, the IC50 in series [1] was determined as 22 nM.
Regarding `CCc1c(C(=O)C(N)=O)c2c(OCC(=O)O)cc(-c3ccccc3)nn2c1Cc1ccc(F)cc1` [Compound I-23], the melting point lay in the range of 250 to 252 °C. The concentration for half-maximal inhibition (IC50) in series [1] was 7 nM.
`CCc1c(C(=O)C(N)=O)c2c(OCC(=O)O)cc(C(F)(F)F)nn2c1Cc1ccc(F)cc1` [Compound I-24] came in with a melting point of 248 to 250 °C. In series [1], the 50% inhibitory concentration (IC50) was 21 nM.
For `CCc1c(C(=O)C(N)=O)c2c(OCC(=O)O)cc(-c3ccccc3)nn2c1Cc1ccccc1F` [Compound I-25], in that order: 252 to 254 °C and 6 nM.
`COC(=O)COc1cc(C)nn2c(Cc3ccccc3)c(C)c(C(=O)C(N)=O)c12` [Compound I-26]: the melting point fell in the range of 163 to 165 °C. Also, in series [1], the IC50 is 177 nM.
With `CCc1c(C(=O)C(N)=O)c2c(OCC(=O)OC)cc(CSc3ccccc3)nn2c1Cc1ccccc1` [Compound I-27], the melting point was 189 to 192 °C. The half-maximal inhibitory concentration (IC50) in series [1] worked out at 126 nM.
In the same order, the values of `CCc1c(C(=O)C(N)=O)c2c(OCC(=O)OCc3ccccc3)cc(CN3CCCC3)nn2c1Cc1ccccc1` [Compound I-29] are 185 to 186 °C and 1520 nM.
In turn, `CCc1c(C(=O)C(N)=O)c2c(OCC(=O)OCc3ccccc3)cc(CN3CCOCC3)nn2c1Cc1ccccc1` [Compound I-30] showed a melting point of 183 to 184 °C. The IC50 in series [1] turned out to be 4520 nM.
In the same order, the values of `CCc1c(C(=O)C(N)=O)c2c(OCC(=O)OCc3ccccc3)cc(CN3CCN(C)CC3)nn2c1Cc1ccccc1` [Compound I-31] are 202 to 203 °C and 15600 nM.
For `CCc1c(C(=O)C(N)=O)c2c(OCC(=O)OC)cc(-c3ccc(F)cc3)nn2c1Cc1ccc(F)cc1` [Compound I-32], in that order: 274 to 276 °C (dec.) and 239 nM.
In the same order, the values of `CCc1c(C(=O)C(N)=O)c2c(OCC(=O)OC)cc(-c3ccc(F)cc3)nn2c1Cc1ccccc1` [Compound I-33] are 249 to 253 °C (dec.) and 72 nM.
For the compound `CCc1c(C(=O)C(N)=O)c2c(OCC(=O)OC)cc(-c3ccc(OC)cc3)nn2c1Cc1ccccc1` [Compound I-34], the melting point was 215 to 217 °C (dec.). The IC50 in series [1] amounted to 58 nM.
In the same order, the values of `CCc1c(C(=O)C(N)=O)c2c(OCC(=O)OC)cc(C)nn2c1Cc1ccccc1-c1ccccc1` [Compound I-35] are 187 to 189 °C and 111 nM.
Compound `CCc1c(C(=O)C(N)=O)c2c(OCC(=O)OC)cc(C)nn2c1Cc1cccc(Oc2ccccc2)c1` [Compound I-36] had a melting point of 201 to 202 °C. In addition, the IC50 in series [1] was found to be 102 nM.
For `CCc1c(C(=O)C(N)=O)c2c(OCC(=O)OC)cc(C3CCCCC3)nn2c1Cc1ccccc1` [Compound I-37], in that order: 207 to 209 °C (dec.) and 212 nM.
With `CCc1c(C(=O)C(N)=O)c2c(OCC(=O)OC)cc(C3CCCC3)nn2c1Cc1ccccc1` [Compound I-38], the melting point is 160 to 162 °C (dec.). Further, the IC50 in series [1] turned out to be 227 nM.
Take `CCc1c(C(=O)C(N)=O)c2c(OCC(=O)OC)cc(-c3ccc4c(c3)OCO4)nn2c1Cc1ccccc1` [Compound I-39]: the melting point is 245 to 247 °C (dec.). Moreover, the IC50 in series [1] is 79 nM.

These data come from patent US6472389B1, “Pyrrolo[1,2-b] pyridazine derivatives having sPLA2 inhibitory effect” (Shionogi & Co., Ltd., priority 1998, dated 2002).
